# Laboratory results from US7645802B2 (Biovail Laboratories International SRL., priority 2005, dated 2010).
# Counter-ions that a name gives are not always drawn.
# How the values were obtained:
# [1] = Dynamic Vapour Sorption (DVS) analysis
# [2] = Closed vial / closed glass bottle stability (40° C./75% RH) of bupropion salt APIs; format: physicochemical
# mice = test: Proconvulsant properties of bupropion salts: clonic convulsions in mice; details: for Mean Number of Convulsions/Mouse / Total Number of convulsions: N=13
# Experimental: Number of convulsions and the intensity of the convulsions were recorded.
# Mild: Head and tail slightly extended and little jerking; Moderate: Head and tail fully extended with some jerking; Severe: Head and tail fully extended with strong jerking. […] Step 2: To further investigate the patterns of convulsion occurrence using loglinear Poisson regression models. The number of convulsions was analyzed using the loglinear Poisson regression models with formulation, dose, and severity as predictors.
# [3] = Solubility and other physical properties, Bupropion HBr vs Bupropion HCl; details: HCl from Erregierre, HBr from Chemi; hydrobromide
# [4] = forced degradation of bupropion HBr and HCl in the presence of excipients at 55° C., 55° C./100% RH, 100° C., 105° C. (incl. TGA at 100° C.); format: physicochemical; details: in the presence of excipients, 55° C., 55° C./100% RH, 100° C., 105° C.
# Experimental: Further forced degradation studies were carried out at 55° C., at 55° C. and 100% relative humidity, at 100° C., and at 105° C. on both the HCl and HBr Bupropion salts in the presence of excipients. […] FIG. 53 is a graph showing the loss of each salt over time in a TGA experiment at 100° C.
# CD-1 mice = test: clonic convulsions in CD-1 mice after intraperitoneal dosing (range finding and main study)
# Experimental: Two studies were performed to investigate the relative proconvulsant properties of the two bupropion salts. In the first instance a range finding study was performed to establish the appropriate dose range for the main study. In each study the mice were divided into two dose groups and injected intraperitoneally with either bupropion HCl or bupropion HBr.
# A clonic convulsion was defined as a stiffening of the animal followed by jerking movements. The convulsions were classified as mild, moderate and severe according to the following descriptions.
# Mild: Head and tail slightly extended and little jerking
# Moderate: Head and tail fully extended with some jerking
# Severe: Head and tail fully extended with strong jerking
# Post-treatment findings recorded included continuous observation for 120 minutes for evidence of clonic convulsions, and intermittent (fixed) observations for 24 hours for other signs, including tonic convulsions, movement, activity, paralysis, gait and evidence of recovery.
# [5] = 10-Days, closed glass bottle 40 C./75% RH, HBr Lot# STN07491, HCl Lot# STN06973, hydrobromide
# [6] = 10 Days, closed glass bottle 40 C./75% RH, HBr Lot# STN07492, HCl Lot# STN06978, hydrobromide
# [7] = 14-Days, closed glass bottle 40° C./75% RH, HBr Lot# STN07492, HCl L# STN06973, hydrobromide
# [8] = 24 Days, closed glass bottle 40° C./75% RH, HBr Lot# STN07492, HCl L# STN06973, hydrobromide
# [9] = Initial, closed glass bottle 40 C./75% RH, HBr Lot# STN07491, HCl Lot# STN06973, hydrobromide
# [10] = Initial, closed glass bottle 40 C./75% RH, HBr Lot# STN07492, HCl Lot# STN06978, hydrobromide
# [11] = Initial, closed glass bottle 40° C./75% RH, HBr Lot# STN07492, HCl L# STN06973, hydrobromide
# [12] = 150 mg/kg, Moderate, hydrobromide
# [13] = 150 mg/kg, Severe, hydrobromide
# [14] = 100 mg/kg i.p., pooled data N = 13/dose group, hydrobromide
# [15] = 150 mg/kg i.p., pooled data N = 13/dose group, hydrobromide
structure (smiles),measurement,setting,value
"CC(NC(C)(C)C)C(=O)c1cccc(Cl)c1 (stereo not drawn) [Bupropion HBr, bupropion hydrobromide]",solubility,"physchem; organic solvent or mixture, EtOH",92 mg/mL
same,solubility,"physchem; organic solvent or mixture, IPA",12 mg/mL
same,solubility,physchem; water,143 mg/mL
same,"hygroscopicity (DVS, words)",[1]; 0% RH-90% RH,non-hygroscopic
same,maximum water uptake (DVS),[1]; at 90% RH,0.14 % weight
same,% Assay,[2]; [5],98.2%
same,% Impurities 3-CBZ,[2]; [5],0.070%
same,% Impurities 20U78/dilu,[2]; [5],0.051%
same,% Impurities 827U76,[2]; [5],0.039%
same,% Impurities 852U77,[2]; [5],0.125%
same,% Impurities Total (%),[2]; [5],0.42%
same,% Impurities Total unknown,[2]; [5],0.129%
same,% Assay,[2]; [6],99.2%
same,% Impurities 3-CBZ,[2]; [6],0.031%
same,% Impurities 20U78/dilu,[2]; [6],0.044%
same,% Impurities 852U77,[2]; [6],0.055%
same,% Impurities Total (%),[2]; [6],0.24%
same,% Impurities Total unknown,[2]; [6],0.15%
same,% Impurities 827U76,"[2]; 14-Days, closed glass bottle 40° C./75% RH, HBr Lot# STN07492, HCl L# STN06973",0.012%
same,% Assay,[2]; [7],98.8%
same,% Impurities 3-CBZ,[2]; [7],0.015%
same,% Impurities 20U78/dilu,[2]; [7],0.048%
same,% Impurities 852U77,[2]; [7],0.058%
same,% Impurities Total (%),[2]; [7],0.23%
same,% Impurities Total unknown,[2]; [7],0.105%
same,% Assay,[2]; [8],99.5%
same,% Impurities 3-CBZ,[2]; [8],0.022%
same,% Impurities 20U78/dilu,[2]; [8],0.038%
same,% Impurities 827U76,[2]; [8],0.016%
same,% Impurities 852U77,[2]; [8],0.052%
same,% Impurities Total (%),[2]; [8],0.23%
same,% Impurities Total unknown,[2]; [8],0.104%
same,% Assay,[2]; [9],99.5%
same,% Impurities 3-CBZ,[2]; [9],0.011%
same,% Impurities 20U78/dilu,[2]; [9],0.041%
same,% Impurities Total (%),[2]; [9],0.17%
same,% Impurities Total unknown,[2]; [9],0.129%
same,% Assay,[2]; [10],99.6%
same,% Impurities 3-CBZ,[2]; [10],0.007%
same,% Impurities 20U78/dilu,[2]; [10],0.041%
same,% Impurities Total (%),[2]; [10],0.23%
same,% Impurities Total unknown,[2]; [10],0.194%
same,% Assay,[2]; [11],99.6%
same,% Impurities 3-CBZ,[2]; [11],0.007%
same,% Impurities 20U78/dilu,[2]; [11],0.044%
same,% Impurities 852U77,[2]; [11],0.009%
same,% Impurities Total (%),[2]; [11],0.16%
same,% Impurities Total unknown,[2]; [11],0.098%
same,"Mean Number of Convulsions/Mouse, cumulative","mice; 100 mg/kg, All, hydrobromide",0.77
same,Mean Number of Convulsions/Mouse,"mice; 100 mg/kg, Mild, hydrobromide",0.69
same,Total Number of convulsions,"mice; 100 mg/kg, Mild, hydrobromide",9
same,Mean Number of Convulsions/Mouse,"mice; 100 mg/kg, Moderate",0.08
same,"Mean Number of Convulsions/Mouse, cumulative","mice; 100 mg/kg, Severe + Moderate, hydrobromide",0.08
same,Mean Number of Convulsions/Mouse,"mice; 100 mg/kg, Severe, 120 min observation, hydrobromide",0.0
same,Total Number of convulsions,"mice; 100 mg/kg, Severe, hydrobromide",0
same,"Mean Number of Convulsions/Mouse, cumulative","mice; 150 mg/kg, All, hydrobromide",46.61
same,Mean Number of Convulsions/Mouse,"mice; 150 mg/kg, Mild, hydrobromide",9.92
same,Total Number of convulsions,"mice; 150 mg/kg, Mild, hydrobromide",129
same,Mean Number of Convulsions/Mouse,mice; [12],12.00
same,Total Number of convulsions,mice; [12],156
same,"Mean Number of Convulsions/Mouse, cumulative","mice; 150 mg/kg, Severe + Moderate, hydrobromide",36.69
same,Mean Number of Convulsions/Mouse,mice; [13],24.69
same,Total Number of convulsions,mice; [13],321
same,PS (Malvern) 10%,[3],10% 72 μm
same,PS (Malvern) 50%,[3],50% 245 μm
same,PS (Malvern) 90%,[3],90% 657 μm
same,moisture content KF,[3],0.00%
same,pH (aq. 0.5%),[3],5.92
same,stability / degradation compared to bupropion HCl,[4],significant improvements in stability compared to bupropion HCl
same,Mean Intensity of Convulsions/Mouse % of Total: Mild,CD-1 mice; [14],90.0 % of Total
same,Mean Intensity of Convulsions/Mouse % of Total: Moderate,CD-1 mice; [14],10.0 % of Total
same,Mean Intensity of Convulsions/Mouse % of Total: Severe,CD-1 mice; [14],0.0 % of Total
same,Mean Number of Convulsions/Mouse,CD-1 mice; [14],0.8
same,numbers of mice that had convulsions in the dose group,CD-1 mice; [14],3/13
same,Mean Number of Convulsions/Mouse,"CD-1 mice; 100 mg/kg i.p., range-finding study, N = 3/dose group, hydrobromide",0
same,numbers of mice that had convulsions in the dose group,"CD-1 mice; 100 mg/kg i.p., second (main) study, N = 10/dose group",3/10
same,Mean Number of Convulsions/Mouse,"CD-1 mice; 100 mg/kg i.p., second (main) study, N = 10/dose group, hydrobromide",1.0
same,Mean Intensity of Convulsions/Mouse % of Total: Mild,CD-1 mice; [15],21.3 % of Total
same,Mean Intensity of Convulsions/Mouse % of Total: Moderate,CD-1 mice; [15],25.7 % of Total
same,Mean Intensity of Convulsions/Mouse % of Total: Severe,CD-1 mice; [15],53.0 % of Total
same,Mean Number of Convulsions/Mouse,CD-1 mice; [15],46.6
same,Mean Number of Convulsions/Mouse,"CD-1 mice; 150 mg/kg i.p., range-finding study, N = 3/dose group, hydrobromide",11.0
same,Mean Number of Convulsions/Mouse,"CD-1 mice; 150 mg/kg i.p., second (main) study, N = 10/dose group, hydrobromide",57.3
same,numbers of mice that had convulsions in the dose group,"CD-1 mice; […] i.p., pooled data N = 13/dose group, hydrobromide",11/13
same,numbers of mice that had convulsions in the dose group,"CD-1 mice; […] i.p., second (main) study, N = 10/dose group, hydrobromide",8/10
same,recovery from other treatment-related signs,CD-1 mice; range finding study,tendency to recover more quickly
same,threshold for tonic convulsions,"CD-1 mice; range finding study, i.p., hydrobromide",125 mg/kg
